In PubChem BioAssay AID1963964 (Molecular Pharmacology Branch, DTP, NCI, 2024):

Test system: 997726-040-R-J2-PDC tumor spheroids, viability
Assay: Anticancer human tumor 997726-040-R-J2-PDC patient-derived squamous cell lung carcinoma cell line growth inhibition [PI3K]
Settings: spheroids with HUVEC and MSC; for IC50: curve of first compound; for viability, T/C: stronger effect = lower value; active = viability on the fitted dose curve at most 10% of control; inactive = the rest
How it was run: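 High-throughput combination screen: PI3K inhibitors crossed with targeted small molecules on complex spheroids of tumor cells, HUVEC and MSCs at 37 degrees C, 5% CO2. Top concentration was at or near clinical Cmax (otherwise 10 microM), with half-log decrements.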

[1] = second compound 0.00316 µM, first compound 0.0316 µM
[2] = second compound 0.00316 µM, first compound 0.1 µM
[3] = second compound 0.00316 µM, first compound 0.316 µM
[4] = second compound 0.00316 µM, first compound 1 µM
[5] = second compound 0.00316 µM, first compound 3.16 µM
[6] = second compound 0.00316 µM, first compound 10 µM
[7] = second compound 0.01 µM, first compound 0.0316 µM
[8] = second compound 0.01 µM, first compound 0.1 µM
[9] = second compound 0.01 µM, first compound 0.316 µM
[10] = second compound 0.01 µM, first compound 1 µM
[11] = second compound 0.01 µM, first compound 3.16 µM
[12] = second compound 0.01 µM, first compound 10 µM
[13] = second compound 0.0316 µM, first compound 0.0316 µM
[14] = second compound 0.0316 µM, first compound 0.1 µM
[15] = second compound 0.0316 µM, first compound 0.316 µM
[16] = second compound 0.0316 µM, first compound 1 µM
[17] = second compound 0.0316 µM, first compound 3.16 µM
[18] = second compound 0.0316 µM, first compound 10 µM
[19] = second compound 0.1 µM, first compound 0.0316 µM
[20] = second compound 0.1 µM, first compound 0.1 µM
[21] = second compound 0.1 µM, first compound 0.316 µM
[22] = second compound 0.1 µM, first compound 1 µM
[23] = second compound 0.1 µM, first compound 3.16 µM
[24] = second compound 0.1 µM, first compound 10 µM
[25] = second compound 0.316 µM, first compound 0.0316 µM
[26] = second compound 0.316 µM, first compound 0.1 µM
[27] = second compound 0.316 µM, first compound 0.316 µM
[28] = second compound 0.316 µM, first compound 1 µM
[29] = second compound 0.316 µM, first compound 3.16 µM
[30] = second compound 0.316 µM, first compound 10 µM
[31] = second compound 1 µM, first compound 0.0316 µM
[32] = second compound 1 µM, first compound 0.1 µM
[33] = second compound 1 µM, first compound 0.316 µM
[34] = second compound 1 µM, first compound 1 µM
[35] = second compound 1 µM, first compound 3.16 µM
[36] = second compound 1 µM, first compound 10 µM
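Also: spheroids exposed to compounds for seven days before readout.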

C#Cc1c(F)ccc2cc(O)cc(-c3ncc4c(N5CC6CCC(C5)N6)nc(OCC56CCCN5CC(F)C6)nc4c3F)c12 (stereo not drawn) + CC(Nc1ccc2c(c1)OCCn1cc(N3C(=O)OCC3C(F)F)nc1-2)C(N)=O
< 31.6 nM: IC50 (second compound 0.1 µM) | IC50 (second compound 0.316 µM) | IC50 (second compound 1 µM)
> 10000 nM: IC50 (second compound 0.00316 µM) | IC50 (second compound 0.01 µM)
5350 nM: IC50 (second compound 0.0316 µM)
inactive: viability, T/C [1] 89.2% | viability, T/C [2] 97.8% | viability, T/C [3] 81.8% | viability, T/C [4] 83.5% | viability, T/C [5] 75.3% | viability, T/C [6] 77.4% | viability, T/C [7] 79% | viability, T/C [8] 83% | viability, T/C [9] 79.2% | viability, T/C [10] 75% | viability, T/C [11] 68.5% | viability, T/C [12] 55% | viability, T/C [13] 62.4% | viability, T/C [14] 65% | viability, T/C [15] 55.3% | viability, T/C [16] 60% | viability, T/C [17] 55.6% | viability, T/C [18] 44.2% | viability, T/C [19] 45.8% | viability, T/C [20] 43.4% | viability, T/C [21] 45.5% | viability, T/C [22] 44.9% | viability, T/C [23] 38.5% | viability, T/C [24] 52.9% | viability, T/C [25] 35.8% | viability, T/C [26] 36.1% | viability, T/C [27] 31.9% | viability, T/C [28] 31.5% | viability, T/C [29] 25.6% | viability, T/C [30] 24.8% | viability, T/C [31] 26.8% | viability, T/C [32] 30.1% | viability, T/C [33] 27.2% | viability, T/C [34] 26.6% | viability, T/C [35] 26.1% | viability, T/C [36] 25.1%

C=CC(=O)N1CCN(c2nc(=O)n(-c3c(C)ccnc3C(C)C)c3nc(-c4c(O)cccc4F)c(F)cc23)C(C)C1 (stereo not drawn) + CC(Nc1ccc2c(c1)OCCn1cc(N3C(=O)OCC3C(F)F)nc1-2)C(N)=O
inactive: viability, T/C [1] 88.3% | viability, T/C [2] 93.5% | viability, T/C [3] 96.6% | viability, T/C [4] 103% | viability, T/C [5] 119% | viability, T/C [6] 114% | viability, T/C [7] 87% | viability, T/C [8] 81.7% | viability, T/C [9] 88.5% | viability, T/C [10] 81.7% | viability, T/C [11] 106% | viability, T/C [12] 98.8% | viability, T/C [13] 60.2% | viability, T/C [14] 63.4% | viability, T/C [15] 67.5% | viability, T/C [16] 67.2% | viability, T/C [17] 72.1% | viability, T/C [18] 82.3% | viability, T/C [19] 43.7% | viability, T/C [20] 47.3% | viability, T/C [21] 43.3% | viability, T/C [22] 49.1% | viability, T/C [23] 54.4% | viability, T/C [24] 48.4% | viability, T/C [25] 31.6% | viability, T/C [26] 32.8% | viability, T/C [27] 33.8% | viability, T/C [28] 33.4% | viability, T/C [29] 37.7% | viability, T/C [30] 33.5% | viability, T/C [31] 26.7% | viability, T/C [32] 27.5% | viability, T/C [33] 29.5% | viability, T/C [34] 26.7% | viability, T/C [35] 30% | viability, T/C [36] 27.2%
< 31.6 nM: IC50 (second compound 0.1 µM) | IC50 (second compound 0.316 µM) | IC50 (second compound 1 µM)
> 10000 nM: IC50 (second compound 0.00316 µM) | IC50 (second compound 0.01 µM) | IC50 (second compound 0.0316 µM)

CC(Cn1ccc(-c2ccc(C#N)c(Cl)c2)n1)NC(=O)c1cc(C(C)O)[nH]n1 (stereo not drawn) + CC(Nc1ccc2c(c1)OCCn1cc(N3C(=O)OCC3C(F)F)nc1-2)C(N)=O
inactive: viability, T/C [1] 85.8% | viability, T/C [2] 88.3% | viability, T/C [3] 89.4% | viability, T/C [4] 91.4% | viability, T/C [5] 97.3% | viability, T/C [6] 85.4% | viability, T/C [7] 78.3% | viability, T/C [8] 81% | viability, T/C [9] 80% | viability, T/C [10] 84.5% | viability, T/C [11] 84.1% | viability, T/C [12] 89.4% | viability, T/C [13] 61.1% | viability, T/C [14] 70.2% | viability, T/C [15] 67.3% | viability, T/C [16] 62.6% | viability, T/C [17] 63.8% | viability, T/C [18] 64.7% | viability, T/C [19] 48.5% | viability, T/C [20] 45.5% | viability, T/C [21] 54.1% | viability, T/C [22] 51.4% | viability, T/C [23] 47.3% | viability, T/C [24] 48.2% | viability, T/C [25] 39% | viability, T/C [26] 32.9% | viability, T/C [27] 32.8% | viability, T/C [28] 33.7% | viability, T/C [29] 35.8% | viability, T/C [30] 31.5% | viability, T/C [31] 31.1% | viability, T/C [32] 26.7% | viability, T/C [33] 26.6% | viability, T/C [34] 30.5% | viability, T/C [35] 28.6% | viability, T/C [36] 24.5%
< 31.6 nM: IC50 (second compound 0.1 µM) | IC50 (second compound 0.316 µM) | IC50 (second compound 1 µM)
> 10000 nM: IC50 (second compound 0.00316 µM) | IC50 (second compound 0.01 µM) | IC50 (second compound 0.0316 µM)

CC1(C)CCC(Nc2ncc(C(F)(F)F)c(-c3c[nH]c4c(P(C)(C)=O)c(C#N)ccc34)n2)CN1 (stereo not drawn) + CC(Nc1ccc2c(c1)OCCn1cc(N3C(=O)OCC3C(F)F)nc1-2)C(N)=O
< 31.6 nM: IC50 (second compound 0.00316 µM) | IC50 (second compound 0.01 µM) | IC50 (second compound 0.0316 µM) | IC50 (second compound 0.1 µM) | IC50 (second compound 0.316 µM) | IC50 (second compound 1 µM)
active: viability, T/C [29] 13% | viability, T/C [30] 1.45% | viability, T/C [33] 10.6% | viability, T/C [34] 11% | viability, T/C [35] 12.6% | viability, T/C [36] 1.25%
inactive: viability, T/C [1] 28.7% | viability, T/C [2] 30% | viability, T/C [3] 33.1% | viability, T/C [4] 33.6% | viability, T/C [5] 32.4% | viability, T/C [6] 5.79% | viability, T/C [7] 32.1% | viability, T/C [8] 30.8% | viability, T/C [9] 28.8% | viability, T/C [10] 31% | viability, T/C [11] 28.3% | viability, T/C [12] 4.9% | viability, T/C [13] 25.6% | viability, T/C [14] 22.9% | viability, T/C [15] 23.5% | viability, T/C [16] 26.1% | viability, T/C [17] 25.2% | viability, T/C [18] 4.37% | viability, T/C [19] 14.3% | viability, T/C [20] 18.4% | viability, T/C [21] 17.3% | viability, T/C [22] 21.5% | viability, T/C [23] 19.6% | viability, T/C [24] 3.37% | viability, T/C [25] 14.6% | viability, T/C [26] 12.9% | viability, T/C [27] 14.1% | viability, T/C [28] 13.4% | viability, T/C [31] 11.4% | viability, T/C [32] 9.53%
